Results as given in patent publication US11498923B2 (Merck Sharp & Dohme Corp., priority 2017, dated 2022).

target: T1, human A2a receptor (Homo sapiens, UniProt P29274); experiment: A2a receptor competition binding assay (Scintillation Proximity); conditions: A2a Ki, membranes from HEK293 cells expressing human A2a receptor; 0.5 nM tritiated ligand; Cheng-Prusoff
T1 construct: purchased Perkin-Elmer RBHA2AM400UA; host or cells: HEK293 cells, used as a membrane preparation
In short: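 Ki values were obtained with the Cheng-Prusoff equation from competition curves against 0.5 nM tritiated antagonist, scintillation proximity counting after 1 h room-temperature incubation. Receptor came from HEK293 membranes pretreated with adenosine deaminase; compound final range 3000–0.15 nM, buffer Ca/Mg-free PBS with 10 mM MgCl2.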

T1 sequence (P29274 whole entry): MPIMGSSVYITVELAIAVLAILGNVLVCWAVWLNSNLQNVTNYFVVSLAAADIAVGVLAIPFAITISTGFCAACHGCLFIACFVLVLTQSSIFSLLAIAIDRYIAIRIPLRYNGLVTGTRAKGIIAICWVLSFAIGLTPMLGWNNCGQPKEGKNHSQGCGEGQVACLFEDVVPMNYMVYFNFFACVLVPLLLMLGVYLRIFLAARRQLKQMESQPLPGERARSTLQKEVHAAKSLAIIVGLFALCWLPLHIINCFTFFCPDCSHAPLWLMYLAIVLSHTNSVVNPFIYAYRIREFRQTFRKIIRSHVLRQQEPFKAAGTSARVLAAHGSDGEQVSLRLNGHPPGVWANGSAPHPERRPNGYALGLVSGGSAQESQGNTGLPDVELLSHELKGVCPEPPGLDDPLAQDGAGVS

Row | SMILES | Ki
1 | COc1cccc2c1nc(N)n1cc(C(=O)N3CCC4(CC3)OCCO4)nc21 [Ex-188, (5-amino-7-methoxyimidazo[1,2-c]quinazolin-2-yl)(1,4-dioxa-8-azaspiro[4.5]decan-8-yl)methanone] | 54 nM

same assay, conditions: membranes from HEK293 cells expressing human A2a receptor; 0.5 nM tritiated ligand; Cheng-Prusoff; read-out: A2a Ki

Row | SMILES | Ki
2 | COc1cccc2c1nc(N)n1cc(C(=O)N3CCCC(C)CC3)nc21 (stereo not shown) [Ex-176, (5-amino-7-methoxyimidazo[1,2-c]quinazolin-2-yl)(4-methylazepan-1-yl)methanone] | 10 nM
3 | COc1cccc2c1nc(N)n1cc(C(=O)N3CCCOCC3)nc21 [Ex-177, (5-amino-7-methoxyimidazo[1,2-c]quinazolin-2-yl)(1,4-oxazepan-4-yl)methanone] | 49 nM
4 | COc1cccc2c1nc(N)n1cc(C(=O)N3CCCC(F)(F)CC3)nc21 [Ex-178, (5-amino-7-methoxyimidazo[1,2-c]quinazolin-2-yl)(4,4-difluoroazepan-1-yl)methanone] | 27 nM
5 | COc1cccc2c1nc(N)n1cc(C(=O)N3CCCC(=O)CC3)nc21 [Ex-179, 1-(5-amino-7-methoxyimidazo[1,2-c]quinazoline-2-carbonyl)azepan-4-one] | 31 nM
6 | COc1cccc2c1nc(N)n1cc(C(=O)N3C[C@@H](C)O[C@@H](C)C3)nc21 [Ex-180, (5-amino-7-methoxyimidazo[1,2-c]quinazolin-2-yl)((2R,6S)-2,6-dimethylmorpholino) methanone] | 53 nM
7 | COc1cccc2c1nc(N)n1cc(C(=O)N3CCO[C@H](C)C3)nc21 [Ex-181, (R)-(5-amino-7-methoxyimidazo[1,2-c]quinazolin-2-yl)(2-methylmorpholino) methanone] | 110 nM
8 | COc1cccc2c1nc(N)n1cc(C(=O)N3CCO[C@@H](C)C3)nc21 [Ex-182, (S)-(5-amino-7-methoxyimidazo[1,2-c]quinazolin-2-yl)(2-methylmorpholino) methanone] | 75 nM
9 | COc1cccc2c1nc(N)n1cc(C(=O)N3CCOC[C@H]3C)nc21 [Ex-183, (R)-(5-amino-7-methoxyimidazo[1,2-c]quinazolin-2-yl)(3-methylmorpholino) methanone] | 126 nM
10 | COc1cccc2c1nc(N)n1cc(C(=O)N3CCOC[C@@H]3C)nc21 [Ex-184, (S)-(5-amino-7-methoxyimidazo[1,2-c]quinazolin-2-yl)(3-methylmorpholino) methanone] | 90 nM
11 | COc1cccc2c1nc(N)n1cc(C(=O)N3CCOC(C(F)(F)F)C3)nc21 (stereo not shown) [Ex-185, (5-amino-7-methoxyimidazo[1,2-c]quinazolin-2-yl)(2-(trifluoromethyl)morpholino) methanone] | 65 nM
12 | COc1cccc2c1nc(N)n1cc(C(=O)N3CCOCC3CC(C)C)nc21 (stereo not shown) [Ex-186, (5-amino-7-methoxyimidazo[1,2-c]quinazolin-2-yl)(3-isobutylmorpholino) methanone] | 53.8 nM
13 | COc1cccc2c1nc(N)n1cc(C(=O)N3CCOC(C)(C)C3)nc21 [Ex-187, (5-amino-7-methoxyimidazo[1,2-c]quinazolin-2-yl)(2,2-dimethylmorpholino) methanone] | 190 nM
14 | COc1cccc2c1nc(N)n1cc(C(=O)N3CCCC(C)(C)C3)nc21 [Ex-189, (5-amino-7-methoxyimidazo[1,2-c]quinazolin-2-yl)(3,3-dimethylpiperidin-1-yl)methanone] | 4.5 nM
15 | COc1cccc2c1nc(N)n1cc(C(=O)N3CCCCC3)nc21 [Ex-190, (5-amino-7-methoxyimidazo[1,2-c]quinazolin-2-yl)(piperidin-1-yl)methanone] | 21 nM
16 | COc1cccc2c1nc(N)n1cc(C(=O)N3CCCC(CO)C3)nc21 (stereo not shown) [Ex-191, (5-amino-7-methoxyimidazo[1,2-c]quinazolin-2-yl)(3-(hydroxymethyl)piperidin-1-yl)methanone] | 23 nM
17 | COc1cccc2c1nc(N)n1cc(C(=O)N3CCC4CCCCC4C3)nc21 (stereo not shown) [Ex-192, (5-amino-7-methoxyimidazo[1,2-c]quinazolin-2-yl)(octahydroisoquinolin-2(1H)-yl)methanone] | 11 nM
18 | COc1cccc2c1nc(N)n1cc(C(=O)N3CCC(C)CC3)nc21 [Ex-193, (5-amino-7-methoxyimidazo[1,2-c]quinazolin-2-yl)(4-methylpiperidin-1-yl)methanone] | 13 nM
19 | CCN(CC)C(=O)C1CCCN(C(=O)c2cn3c(N)nc4c(OC)cccc4c3n2)C1 (stereo not shown) [Ex-194, 1-(5-amino-7-methoxyimidazo[1,2-c]quinazoline-2-carbonyl)-N,N-diethylpiperidine-3-carboxamide] | 21 nM
20 | COc1cccc2c1nc(N)n1cc(C(=O)N3CCCCC3C)nc21 (stereo not shown) [Ex-195, (5-amino-7-methoxyimidazo[1,2-c]quinazolin-2-yl)(2-methylpiperidin-1-yl)methanone] | 10 nM
21 | COc1cccc2c1nc(N)n1cc(C(=O)N3CCC(C(C)C)CC3)nc21 [Ex-196, (5-amino-7-methoxyimidazo[1,2-c]quinazolin-2-yl)(4-isopropylpiperidin-1-yl)methanone] | 11 nM
22 | COc1cccc2c1nc(N)n1cc(C(=O)N3CCC4(CCOC4)CC3)nc21 [Ex-197, (5-amino-7-methoxyimidazo[1,2-c]quinazolin-2-yl)(2-oxa-8-azaspiro[4.5]decan-8-yl)methanone] | 22 nM
23 | COc1cccc2c1nc(N)n1cc(C(=O)N3CCCCC34CC4)nc21 [Ex-198, (5-amino-7-methoxyimidazo[1,2-c]quinazolin-2-yl)(4-azaspiro[2.5]octan-4-yl)methanone] | 5.6 nM
24 | COc1cccc2c1nc(N)n1cc(C(=O)N3CCC(=O)C(C(C)C)C3)nc21 (stereo not shown) [Ex-199, 1-(5-amino-7-methoxyimidazo[1,2-c]quinazoline-2-carbonyl)-3-isopropylpiperidin-4-one] | 260 nM
25 | COc1cccc2c1nc(N)n1cc(C(=O)N3CCCC4(CCC4)C3)nc21 [Ex-200, (5-amino-7-methoxyimidazo[1,2-c]quinazolin-2-yl)(6-azaspiro[3.5]nonan-6-yl)methanone] | 4.6 nM
26 | COc1cccc2c1nc(N)n1cc(C(=O)N3CCC4(CC3)CC4)nc21 [Ex-201, (5-amino-7-methoxyimidazo[1,2-c]quinazolin-2-yl)(6-azaspiro[2.5]octan-6-yl)methanone] | 14 nM
27 | COc1cccc2c1nc(N)n1cc(C(=O)N3CCC4(CCCC4)CC3)nc21 [Ex-202, (5-amino-7-methoxyimidazo[1,2-c]quinazolin-2-yl)(8-azaspiro[4.5]decan-8-yl)methanone] | 5.2 nM
28 | COc1cccc2c1nc(N)n1cc(C(=O)N3CCCC4(COC4)C3)nc21 [Ex-203, (5-amino-7-methoxyimidazo[1,2-c]quinazolin-2-yl)(2-oxa-6-azaspiro[3.5]nonan-6-yl)methanone] | 11 nM
29 | COc1cccc2c1nc(N)n1cc(C(=O)N3CCCC4(CCCCO4)C3)nc21 (stereo not shown) [Ex-204, (5-amino-7-methoxyimidazo[1,2-c]quinazolin-2-yl)(1-oxa-8-azaspiro[5.5]undecan-8-yl)methanone] | 12 nM
30 | COc1cccc2c1nc(N)n1cc(C(=O)N3CCCC4(CCCO4)C3)nc21 (stereo not shown) [Ex-205, (5-amino-7-methoxyimidazo[1,2-c]quinazolin-2-yl)(1-oxa-7-azaspiro[4.5]decan-7-yl)methanone] | 13 nM
31 | COc1cccc2c1nc(N)n1cc(C(=O)N3CCC4(CC3)COC4)nc21 [Ex-206, (5-amino-7-methoxyimidazo[1,2-c]quinazolin-2-yl)(2-oxa-7-azaspiro[3.5]nonan-7-yl)methanone] | 110 nM
